# Test results reported in the supplement of paper PMC11061612.
# Tests used:
# Test in all cases: combination Emax (second highest fraction inhibited in the dose matrix, 72 h); higher = more inhibition; extreme values may be limits of the assay
# [1] = system: VCaP (Prostate Carcinoma)
# Outline: (§1)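 Bliss excess equals the observed combination effect minus the expected value EA + EB − EA·EB, where EA and EB are the effects of each agent alone. Combination Emax is the second-highest inhibition within the matrix. Inhibition was scaled from CellTiter-Glo 2.0 luminescence, with 0 set by vehicle wells and 1 by blank wells, after 72 hours of two-drug dosing of cells plated in 1536-well plates.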
# NCI-H2591 (Mesothelioma) = system: NCI-H2591 (Mesothelioma)
# Outline: as §1
# [2] = system: NCI-H2066 (Squamous Cell Lung Carcinoma)
# Outline: as §1
# [3] = system: COLO-320-HSR (Colorectal Carcinoma)
# Outline: as §1
# [4] = system: BICR22 (Oral Cavity Carcinoma)
# Outline: as §1
# [5] = system: TT2609-C02 (Thyroid Gland Carcinoma)
# Outline: as §1
# FU97 (Gastric Carcinoma) = system: FU97 (Gastric Carcinoma)
# Outline: as §1
# [6] = system: SK-MG-1 (Low Grade Glioma)
# Outline: as §1
# [7] = system: KARPAS-422 (B-Cell Non-Hodgkin's Lymphoma)
# Outline: as §1
# [8] = system: SISO (Cervical Carcinoma)
# Outline: as §1
# [9] = system: CAPAN-2 (Pancreatic Carcinoma)
# Outline: as §1
# CAS-1 (Glioblastoma) = system: CAS-1 (Glioblastoma)
# Outline: as §1
# [10] = system: ONS-76 (Other Solid Carcinomas)
# Outline: as §1
# [11] = system: NCI-H1650 (Lung Adenocarcinoma)
# Outline: as §1
# [12] = system: NCI-H2141 (Small Cell Lung Carcinoma)
# Outline: as §1
# U-2-OS (Osteosarcoma) = system: U-2-OS (Osteosarcoma)
# Outline: as §1
# GI-ME-N (Neuroblastoma) = system: GI-ME-N (Neuroblastoma)
# Outline: as §1
# [13] = system: MDST8 (Colorectal Carcinoma)
# Outline: as §1
# [14] = system: OS-RC-2 (Kidney Carcinoma)
# Outline: as §1
# [15] = system: NCI-H1693 (Lung Adenocarcinoma)
# Outline: as §1
SMILES,combination Emax [1],combination Emax (NCI-H2591 (Mesothelioma)),combination Emax [2],combination Emax [3],combination Emax [4],combination Emax [5],combination Emax (FU97 (Gastric Carcinoma)),combination Emax [6],combination Emax [7],combination Emax [8],combination Emax [9],combination Emax (CAS-1 (Glioblastoma)),combination Emax [10],combination Emax [11],combination Emax [12],combination Emax (U-2-OS (Osteosarcoma)),combination Emax (GI-ME-N (Neuroblastoma)),combination Emax [13],combination Emax [14],combination Emax [15]
"CN(CCO)CC[C@H](CSc1ccccc1)Nc1ccc(S(=O)(=O)NC(=O)c2ccc(N3CCC([C@@H](O)c4ccccc4-c4ccc(Cl)cc4)CC3)cc2)cc1S(=O)(=O)C(F)(F)F [AZD4320] + C1CN(CCC1(C(=O)N[C@@H](CCO)C2=CC=C(C=C2)Cl)N)C3=NC=NC4=C3C=CN4 [Capivasertib] (first compound max 1 µM, 7x7, partner max 3 µM)",0.404,0.101,0.923,0.0137,0.684,0.0697,0.418,0.413,0.989,0.0618,0.576,0.327,0.221,0.143,0.829,0.225,0.153,0.914,0.337,–
"CN(CCO)CC[C@H](CSc1ccccc1)Nc1ccc(S(=O)(=O)NC(=O)c2ccc(N3CCC([C@@H](O)c4ccccc4-c4ccc(Cl)cc4)CC3)cc2)cc1S(=O)(=O)C(F)(F)F [AZD4320] + C[C@@H](Nc1cc(F)cc(F)c1)c1cc(C(=O)N(C)C)cc2c(=O)cc(N3CCOCC3)oc12 [AZD8186] (first compound max 1 µM, 7x7, partner max 3 µM)",0.37,0.214,0.64,0.236,0.838,0.294,0.507,0.652,0.999,0.315,0.678,0.623,0.338,0.402,0.886,0.382,0.469,–,0.581,0.386
"COc1nnc2ccc(N3CCC(c4ccc(OCCN5CCN(C)C(=O)[C@H]5C)cc4)CC3)nn12 [AZD5153] + CN(CC[C@H](CSC1=CC=CC=C1)NC2=C(C=C(C=C2)S(=O)(=O)NC(=O)C3=CC=C(C=C3)N4CCC(CC4)[C@H](C5=CC=CC=C5C6=CC=C(C=C6)Cl)O)S(=O)(=O)C(F)(F)F)CCO [AZD4320] (first compound max 1 µM, 7x7, partner max 1 µM)",–,0.395,–,–,–,0.424,–,0.566,–,0.419,–,0.587,–,0.419,0.941,0.319,0.246,0.918,0.292,0.628
"CC(=O)c1c(C)c2cnc(Nc3ccc(N4CCNCC4)cn3)nc2n(C2CCCC2)c1=O [Palbociclib] + CN(CC[C@H](CSC1=CC=CC=C1)NC2=C(C=C(C=C2)S(=O)(=O)NC(=O)C3=CC=C(C=C3)N4CCC(CC4)[C@H](C5=CC=CC=C5C6=CC=C(C=C6)Cl)O)S(=O)(=O)C(F)(F)F)CCO [AZD4320] (first compound max 10 µM, 7x7, partner max 1 µM)",–,0.249,–,–,–,0.29,–,0.563,–,0.126,–,0.405,–,0.184,0.883,0.355,0.211,0.781,0.365,0.803
"CCc1c2c(nc3ccc(O)cc13)-c1cc3c(c(=O)n1C2)COC(=O)[C@]3(O)CC [SN-38] + O=C(c1cc(Cc2n[nH]c(=O)c3ccccc23)ccc1F)N1CCN(C(=O)C2CC2)CC1 [Olaparib] (first compound max 0.3 µM, 7x7, partner max 10 µM)",0.459,0.575,0.0964,0.261,0.95,–,0.277,0.821,0.957,0.932,0.137,0.609,0.829,0.575,0.423,0.205,0.494,0.745,–,–
"C[C@@H](c1ccc2nccn2c1)n1nnc2ncc(-c3cnn(C)c3)nc21 [Savolitinib] + CN(CC[C@H](CSC1=CC=CC=C1)NC2=C(C=C(C=C2)S(=O)(=O)NC(=O)C3=CC=C(C=C3)N4CCC(CC4)[C@H](C5=CC=CC=C5C6=CC=C(C=C6)Cl)O)S(=O)(=O)C(F)(F)F)CCO [AZD4320] (first compound max 1 µM, 7x7, partner max 1 µM)",–,0.15,–,–,–,0.174,–,0.152,–,0.0887,–,0.176,–,0.182,0.744,0.385,0.229,0.626,0.324,0.182
"CC(=O)Nc1cccc(-n2c(=O)n(C3CC3)c(=O)c3c(Nc4ccc(I)cc4F)n(C)c(=O)c(C)c32)c1 [Trametinib] + Cc1nc(-c2cn3c(n2)-c2ccc(-c4cnn(C(C)(C)C(N)=O)c4)cc2OCC3)n(C(C)C)n1 [Taselisib] (first compound max 1 µM, 7x7, partner max 10 µM)",0.47,0.543,0.728,0.338,1,0.821,–,0.85,0.63,0.447,0.578,0.957,0.975,0.695,0.317,1,0.77,0.865,0.627,0.469
